Earlier results in US9034628B2, “Induction of gene expression using a high concentration sugar mixture” (Danisco US Inc., priority 2002, dated 2015).

Tested on: main cellulase genes in Trichoderma, cbh1, cbh2, egl1, and egl2

OC[C@H]1O[C@@H](O[C@H]2C(O)O[C@H](CO)[C@@H](O)[C@@H]2O)[C@H](O)[C@@H](O)[C@@H]1O (some centres unmarked) [sophorose]
Expression of the cellulase genes (carbon source available for growth): induced several thousand fold
expression level of the major cellobiohydrolase 1 (cbh1) (media containing inducing carbon source compared with glucose containing media (Ilmen et al. 1997)): up-regulated several thousand fold
